Measurements published in patent publication US5552156A, “Liposomal and micellular stabilization of camptothecin drugs” (Ohio State University, priority 1995, dated 1996).
“And” between values parts separate entries of the source, which are not always exact repeats. Equal values may be shown once.

Experiments:
[1] = Overall association constant by fluorescence anisotropy titration, DMPC liposomes; assay type: physicochemical; conditions: 2 mM drug, 0.29M DMPC
[2] = Iodide quenching of camptothecin fluorescence; assay type: physicochemical
From the text: Additional evidence that the fluorochrome of the camptothecin drugs penetrates into the membrane of the liposome comes from iodide quenching data. Iodide has an immeasurably small permeation of the liposome membrane and is able to discriminate between camptothecin drug molecules free in solution and those molecules located in the interior of the liposome membrane. These methods have been described in detail in Burke and Tritton, Biochemistry (1985) 24: 5972-5980; G. L. Jendrasiak, Chem. Phys. Lipids 9: 133-146 (1992); and, M. Cranney et al. Biochem. Biophys. ACTA 735, 418-425, which are incorporated herein by reference. The quenching studies were conducted using 0.5M iodide in PBS buffer.
The quenching of fluorescence of both camptothecin free in PBS and liposome membrane bound camptothecin by iodide ions was conducted at a constant halide concentration of 0.5M, in the presence of 2 mM sodium thiosulfate to prevent the oxidation of iodide. The camptothecin concentration was 1×10^-6 M and the iodide concentration was varied from 0 to 0.5M, and the chloride concentration was adjusted accordingly. The quenching experiments for the camptothecin bound to DMPC or DMPG liposome membranes were done at a lipid concentration of 100 mg/mL, so that the fraction of the bound camptothecin was more than 97%.
Fluorescence of the liposome membrane bound camptothecin is quenched to relatively lower extent, for instance, F0 /F, for camptothecin bound to DMPC liposomes is only 4.1 (see Plot C). Also, there is a clear cut upward curvature in the F0 /F vs. [I] plot (curve "A", […]) for camptothecin free in PBS whereas F0 /F vs. [I] plot for camptothecin bound with DMPC membranes is linear. Quenching of fluorescence is believed to proceed via the dynamic (or collisional) and static quenching processes. Fluorescence quenching by a quencher molecule in contact with the fluorophore at the instant of excitation is considered to be static quenching. The static and dynamic quenching processes are separated by the following modified form of the Stern-Volmer equation (Eftink & Ghiron, 1976): […]
where, V is the static quenching constant and Ksv the dynamic or collisional quenching constant. The V and Ksv values were obtained by fitting the quenching data to equation 3 with a value of V which gave the best correlation coefficient for the plot of F0 /Fe^v[Q] vs. [Q]. The upward curvature of the quenching data of free camptothecin free in PBS seen in FIG. 8 could be attributed to the static quenching process. The straight line "B", which is tangential to the F0 /F vs. [I] plot for free camptothecin in PBS, represents the dynamic part of the iodide quenching of camptothecin fluorescence, the slope of which is equal to Ksv (slope=44 3M^-1 where V=14M^-1 correlation coefficient=0.9993). The Stern-Volmer plot for the liposome bound camptothecin is linear, curve "C", FIG. 8, the slope being 6.1M^-1. […] The dashed line represents the static and dynamic quenching components camptothecin free in solution is determined by F0 /F values.

[3] = bound to DMPC liposomes, iodide

## CC[C@@]1(O)C(=O)OCc2c1cc1n(c2=O)Cc2cc3ccccc3nc2-1 [camptothecin]
[1]
  bound camptothecin level at raised drug concentration: 97%
[2]; DMPC or DMPG, lipid 100 mg/mL
  fraction of bound camptothecin in quenching experiments: more than 97%
[2]; bound to DMPC liposomes, 0.5M iodide
  F0/F (iodide quenching), DMPC-bound: 4.1
[2]; [3]
  dynamic quenching constant Ksv (slope), DMPC-bound: 6.1 M⁻¹ and 6.2 M⁻¹
  static quenching constant V, DMPC-bound: 0 M⁻¹
[2]; free in PBS pH 7.4, 0.5M iodide
  F0/F (iodide quenching), free: about 54.3
[2]; free in PBS, iodide
  dynamic quenching constant Ksv, free: 44.3 M⁻¹
